Laboratory results: publication PMC7756582, “Prodrugs of γ‐Alkyl‐Modified Nucleoside Triphosphates: Improved Inhibition of HIV Reverse Transcriptase” (Angewandte Chemie (International Ed. in English), 2020)

Experiments:
HIV-2(ROD) [1] = assay: Anti-HIV activity assay, HIV-2-infected wild-type CEM/0 cell cultures; assay type: cell-based; settings: Human immunodeficiency virus 2, CCRF-CEM, read-out: EC50 CEM/0 HIV-2
Protocol: (§1) γ‐(AB,alkyl)‐d4TTP prodrugs 6 and the γ‐alkyl‐d4TTPs 7 were evaluated for their ability to inhibit the replication of HIV in HIV‐1‐ or HIV‐2‐infected wild‐type CEM/0 as well as mutant thymidine‐kinase‐deficient CEM cell cultures (CEM/TK^−). For comparison, two TriPPPro derivatives 5 were also included in this assay.
(§2) Anti-HIV activity assay: Inhibition of HIV-1(IIIB)- and HIV-2(ROD)-induced cytopathicity in wild-type CEM/0 and thymidine kinase-deficient CEM/TK- cell cultures was measured in microtiter 96-well plates containing ~3·105 CEM cells/mL infected with 100 CCID50 of HIV per milliliter and containing appropriate dilutions of the test compounds. After 4−5 days of incubation at 37 °C in a CO2-controlled humidified atmosphere, CEM giant (syncytium) cell formation was examined microscopically. […]
(§3) was defined as the compound concentration required to inhibit HIV-induced giant cell formation by 50%. […]
(§4) The result was visualized by fluorescence imaging. […]
as §4

human DNA polymerase β = biological target: T1, human DNA polymerase β (Homo sapiens, UniProt P06746); assay: Primer extension assay with human DNA polymerase β; assay type: biochemical; settings: single triphosphate, 66 μM, Pol β 6 U, 60 min
T1 construct: purchased Roboklon
Protocol: Two different set‐ups have been used. First, a mixture of dATP, dCTP, dGTP, and γ‐alkyl‐TTP (N*) or ‐d4TTP (T*) was used as a mixture. The results obtained from these experiments were compared to those in which just γ‐alkyl‐TTP (N) or d4TTP (T) was used. In each experiment a primer extension without added polymerase (negative control, ‐ lane) and an experiment in which all four canonical NTPs were added (positive control, +lane) were used as controls.
Figure 4 Primer extension assay using DNA polymerase β and the γ‐alkyl‐dNTP 7 and 15. Lane 1 (−): dATP, dGTP, dCTP and TTP without human DNA polymerase β; lane 2 (+): dATP, dGTP, dCTP, and TTP with human Pol β; lane 3 (N, C4‐T): γ‐C4‐TTP 15 w; lane 4 (N, C18‐T): γ‐C18‐TTP 15 z; lane 5 (T, C4‐d4T): γ‐C4‐d4TTP 7 w; lane 6 (T, C11‐d4T): γ‐C11‐d4TTP 7 x; lane 7 (T, C18‐d4T): γ‐C18‐d4TTP 7 z; lane 8 (d4TTP): d4TTP. […]
as §2, with “compounds.” for “compounds. After 4−5 days of incubation at 37 °C in a CO2-controlled humidified atmosphere, CEM giant (syncytium) cell formation was examined microscopically.”
2) For HIV- RT assay: The final assay solution (10 µL) consists of 50 mM Tris-HCl (pH 8.6 at 22 °C), 10 mM MgCl2, 40mM KCl, dNTPs 66 µM, HIV RT 6 U, Hybrid 0.32 µM in a reaction volume of 10 µL, incubated 37 °C for 15 min, 80 °C for 3 min; 50 mA, 45w for 4 h. […] The result was visualized by fluorescence imaging.
3) For human DNA pol β assay: The final assay solution (10 µL) consists of 50 mM Tris-HCl (pH 8.7), 10 mM MgCl2, 100mM KCl, 1.0 mM dithiothreitol, 0.4 mg/ml of bovine serum albumin, 15% glycerol, dNTPs 66 µM, DNA Polymerase Beta 6 U, Hybrid 0.32 µM in a reaction volume of 10 µL, incubated 37 °C for 60 min, 80 °C for 3 min; 50 mA, 45w for 4 h. […] The result was visualized by fluorescence imaging. […]

[2] = biological target: T2, HIV reverse transcriptase (RT) (Human immunodeficiency virus type 1 group M subtype B, UniProt P03366); assay: Primer extension assay with HIV-RT; assay type: biochemical, HIV-1; settings: for primer extension by HIV-RT (substrate properties): with the other three canonical triphosphates, HIV-RT 6 U
T2 construct: reverse transcriptase (RT; an HIV‐encoded RNA‐dependent DNA polymerase); purchased Roboklon
Protocol: Primer-extension reactions:
HIV-RT and human DNA polymerase β and γ were obtained from Roboklon, human DNA polymerase α was obtained from Chimerx.
The primers and templates were purchased from Life Technologies and Microsynth. The fluorescent labeled primer was purchased
from Metabion and Microsynth. The gels were prepared with the size of 450mm×200mm×0.4mm according to the electrophoresis
5’-FITC and 5’-Cy3 labeled Primer-sequence:
The primer extension assays were performed under the following conditions:
FITC and Cy3 labeled primer extension assay:
1) Hybridization: After 5 min incubation at 95 °C in 20 mM Tris-HCl (pH 7.6) and 50 mM NaCl, the hybridization/annealing of the
primer to the template strand was achieved by a cooling phase from 95 °C to […] lasted more than 2 hours. […]
The assays were separated using a denaturating PAGE (15%). The result was visualized by fluorescence imaging. […]
as §4, §4

HIV-2(ROD) [3] = assay: Anti-HIV activity assay, HIV-2-infected thymidine-kinase-deficient CEM/TK- cell cultures; assay type: cell-based; settings: for EC50: mean±SD, n=2-3
Protocol: as §1, §2, §3, §4, §4

[4] = Human immunodeficiency virus 2, CEM-TK(-), read-out: EC50 CEM/TK− HIV-2, thymidine-kinase-deficient CEM/TK− cells, HIV-2
[5] = wild-type CEM/0 cells, HIV-2, mean±SD, n=2-3
[6] = Human immunodeficiency virus 2, thymidine-kinase-deficient CEM/TK− cells, HIV-2, read-out: EC50 CEM/TK− HIV-2
[7] = read-out: EC50 CEM/TK− HIV-2, thymidine-kinase-deficient CEM/TK− cells, HIV-2

| Compound | EC50 (HIV-2(ROD) [1]) [nM] | primer extension by DNA polymerase β (substrate properties) (human DNA polymerase β) | primer extension by HIV-RT (substrate properties) ([2]; 60 min incubation, dNTPs 66 μM) | antiviral activity in CEM/TK− cell cultures (in words) (HIV-2(ROD) [3]; HIV-2-infected CEM/TK− cells) | EC50 (HIV-2(ROD) [3]; [4]) [nM] | EC50 (HIV-2(ROD) [1]; [5]) [nM] | EC50 (HIV-2(ROD) [3]; [6]) [nM] | primer extension by HIV-RT (substrate properties) ([2]; 15 min incubation) | comparison of substrate properties for HIV-RT ([2]; incubation 10, 20, 40 and 60 min, conversion of primer to n+1 product) | EC50 (HIV-2(ROD) [3]; [7]) [nM] | primer extension by HIV-RT (substrate properties) ([2]; 30 min incubation) | antiviral activity improved versus TriPPPro intermediates comprising a C17 aliphatic chain (HIV-2(ROD) [3]; HIV-2-infected CEM/TK− cells) [fold] | more active than d4T (HIV-2(ROD) [3]; HIV-2-infected CEM/TK− cells) [fold] |
| --- | --- | --- | --- | --- | --- | --- | --- | --- | --- | --- | --- | --- | --- |
| Cc1cn(C2C=CC(COP(=O)(O)OP(=O)(O)OP(=O)(O)O)O2)c(=O)[nH]c1=O (centres unmarked) [2 t, d4TTP, reference compound] | 400 ± 260 | efficiently incorporated | only the n+1 band is visible | inactive | > 100000 |  |  |  |  |  |  |  |  |
| CCCCCCCCCCCCCCCCCCOP(=O)(OCc1ccc(OC(=O)CCCC)cc1)OP(=O)(O)OP(=O)(O)OCC1C=CC(n2cc(C)c(=O)[nH]c2=O)O1 (centres unmarked) [6 cz, γ‐(AB‐C4,alkyl‐C18)‐d4TTP] |  |  |  |  |  | 160 ± 100 | 170 |  |  |  |  |  |  |
| CCCCCCCCCCCCCCCC(=O)Oc1ccc(COP(=O)(OCCCC)OP(=O)(O)OP(=O)(O)OCC2C=CC(n3cc(C)c(=O)[nH]c3=O)O2)cc1 (centres unmarked) [6 ew, γ‐(AB‐C15,alkyl‐C4)‐d4TTP] |  |  |  | inactive |  | 240 ± 10 | > 10000 |  |  |  |  |  |  |
| CCCCOP(=O)(O)OP(=O)(O)OP(=O)(O)OCC1C=CC(n2cc(C)c(=O)[nH]c2=O)O1 (centres unmarked) [7 w, γ‐C4‐d4TTP] | 290 ± 150 | good substrate |  | almost inactive | 35000 |  |  | single incorporation and an immediate chain termination | better substrates | 36000 ± 29000 |  |  |  |
| CCCCCCCCCCCCCCCCCCOP(=O)(O)OP(=O)(O)OP(=O)(O)OCC1C=CC(n2cc(C)c(=O)[nH]c2=O)O1 (centres unmarked) [7 z, γ‐C18‐d4TTP] | 110 ± 84 | no incorporation was detected | Only the n+1 band was detected | highly potent | 55 |  |  |  |  | 50 ± 27 | immediate chain termination | 30 | 2700 |
